Assay results reported in ChEMBL document CHEMBL1127832, “Furoxans as nitric oxide donors. 4-Phenyl-3-furoxancarbonitrile: thiol-mediated nitric oxide release and biological evaluation” (J Med Chem, 1994).

What was measured:
Rattus norvegicus [1] = species on record: Rattus norvegicus; assay: Compound was tested for percent recovery of noradrenergic tone after washing aortic preparations with fresh Kreb's buffer; format: functional; details: Aorta
Rattus norvegicus [2] = species on record: Rattus norvegicus; assay: Compound was tested for its vasodilator effects on endothelium-denuded strips of rat aorta precontracted with noradrenaline; format: functional

Compound	Recovery (Rattus norvegicus [1]) [%]	EC50 (Rattus norvegicus [2]) [nM]
N#Cc1c(-c2ccccc2)no[n+]1[O-] [FUROXAN]	66	–
O=[N+]([O-])OCC(CO[N+](=O)[O-])O[N+](=O)[O-] [NITROGLYCERIN]	–	22
